Experimental data published in US9951055B2, “Thiazole-based inhibitors of scavenger receptor BI” (THE BROAD INSTITUTE, INC., priority 2012, dated 2018).

Legend:
[1] = Cell cytotoxicity assay (CellTiter-Glo); type: cell-based, Chinese hamster; settings: Chinese hamster, ldlA[mSR-BI] cells; after 24 hours of treatment
Experimental: It is possible that a compound will cause cells to decrease HDL-mediated DiI uptake due to nonspecific consequences of cellular toxicity, representing a second class of false positive hits. The cells were treated with compounds for 3 hours or 24 hours, and then cell viability was measured using the CellTiter-Glo Assay (Promega), a luciferase-based reagent that measures cellular ATP levels. The compounds were tested at different concentrations to determine IC50 values. […] Compounds that were active in the primary assay but toxic below 30 μM at 24 hours (but nontoxic at 3 hours) were still considered. […] Data were normalized against DMSO and the positive control (1 μM BLT-1) in Genedata Assay Analyzer.
All available dry powder samples of the remaining, non-quenching compounds were procured from commercial sources and purities were determined. The compounds obtained were then retested in the primary assay and in the cytotoxicity assays. We wanted to rule out any compounds that were cytotoxic, especially in the 3-hour time span of the primary DiI-HDL uptake assay. Therefore, compounds were tested in ldlA[mSR-BI]cells for cytotoxicity at 3 hours and 24 hours using the CellTiter-Glo assay (Promega) that measures cellular ATP as a marker of cell viability. […] Compounds were screened for inhibition of endocytosis using labeled transferrin, which is known to bind the transferrin receptor, enter cells by clathrin-mediated endocytosis, and move to endosomes before being recycled to the cell surface. The BLT compounds have also been tested for potential interference with endocytosis and show no such activity.

[2] = system: endocytosis of transferrin; assay: Transferrin endocytosis assay; type: cell-based
Excerpt: Transferrin Endocytosis Assay (SA 3: AID No. 602134) This assay measures the endocytosis of an independent ligand, transferrin, which is not taken up via SR-BI but by clathrin-mediated endocytosis. This assay provides a measure of the selectivity of the inhibitors. Alexa-594-labeled transferrin is taken into the cell via endocytosis and localization of labeled transferrin was quantitated in the various intracellular compartments. […] Inhibitors of interest should act selectively at SR-BI and should have no activity in this assay. Cells were pre-treated with compound for 3 hours and then treated with the Alexa-594 transferrin reagent for 30 minutes (Catalog No. T-13343; Invitrogen) in serum-free media. Plates of cells were then placed onto ice, washed with ice cold PBS, and then fixed with 4% paraformaldehyde. In addition, the nuclei were stained with 300 nM 4′,6-diamidino-2-phenylindole (DAPI) (Catalog No. 21490; Invitrogen). The cells were imaged with the Molecular Devices IXM microscope (FIG. 22). Translocation measurements were performed using MetaExpress software and normalized for cell number.

Stability in PBS = type: physicochemical; settings: PBS (1% DMSO), over 48 hours
Experimental: The stability of the probe in PBS (1% DMSO) was measured over 48 hours. We noticed that the concentration of the probe fluctuated through the course of the assay (data not shown). We believe that this fluctuation is due to the low solubility of the probe. Thus, we decided to determine the amount of undissolved probe present in the well after it was treated with PBS for a given length of time, relative to the amount of undissolved probe at the start of the assay. The wells were centrifuged and the supernatant was removed after various time points, then acetonitrile was added to dissolve the remaining solid in the wells, and the amount of probe was quantified. […] The stability of the probe was confirmed by measuring stability in human plasma, with >99% remaining after a 5-hour incubation period. […] FIG. 5 provides a tablular summary of Known Probe (ML278) Properties Computed from Structure.

SR-BI = target: T1, SR-BI (Mus musculus, UniProt Q61009); assay: Cholesterol efflux assay; type: cell-based; set-up: expressed in transfected cells
T1 sequence (Q61009 1-509): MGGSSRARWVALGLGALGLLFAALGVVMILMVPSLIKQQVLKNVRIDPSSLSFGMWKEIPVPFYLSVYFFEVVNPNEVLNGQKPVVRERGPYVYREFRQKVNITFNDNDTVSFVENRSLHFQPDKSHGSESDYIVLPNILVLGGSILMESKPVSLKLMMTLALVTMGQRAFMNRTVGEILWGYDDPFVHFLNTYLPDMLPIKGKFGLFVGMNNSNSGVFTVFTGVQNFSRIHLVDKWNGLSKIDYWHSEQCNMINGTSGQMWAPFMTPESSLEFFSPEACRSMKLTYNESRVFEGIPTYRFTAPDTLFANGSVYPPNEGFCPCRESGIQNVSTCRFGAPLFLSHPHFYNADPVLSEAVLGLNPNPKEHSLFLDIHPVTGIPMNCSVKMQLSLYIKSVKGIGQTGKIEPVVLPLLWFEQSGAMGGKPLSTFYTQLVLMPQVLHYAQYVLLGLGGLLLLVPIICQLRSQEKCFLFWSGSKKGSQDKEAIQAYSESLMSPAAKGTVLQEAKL
Experimental: SR-BI also mediates bidirectional flux (e.g. efflux) of unesterified or ‘free’ cholesterol (FC) between cells and HDL or other acceptors. In vivo, the greatest SR-BI-mediated selective uptake occurs in the liver and steroidogenic organs. This assay is used to determine if the compounds alter the efflux of FC to HDL.
On Day 0, 50,000 cells per well were plated in 24-well plates. On the following day, the media was removed and [^3H]cholesterol in lipoprotein-deficient media was added. On Day 1, the medium was replaced with Ham's F12 medium supplemented with 10% bovine lipoprotein deficient serum with 1 μCi/ml [1,2-^3H]cholesterol (40-60 Ci/mmol). On Day 3, the cells were washed to remove serum and incubated in Ham's F12 plus 1% fatty acid-free BSA. On Day 4, the cells were washed and pretreated with compounds for 1 hour. Subsequently, the cells were incubated for an additional 2 hours with the same concentrations of small molecules and with unlabeled HDL (final HDL concentration of 100 μg protein/ml). The medium was collected to determine released cholesterol, and the cells were lysed. The amount of [^3H]cholesterol in the medium and cells was determined using liquid scintillation counting. Total cellular [^3H]cholesterol was calculated as the sum of the radioactivity in the efflux medium plus the radioactivity in the cells and was used to calculate the [^3H]cholesterol efflux (percent of total [^3H]cholesterol released into the medium).

[3] = listed as compound of Formula (II)

SMILES: COCC(=O)N1CCc2cc(-c3csc(NC(=O)c4cc(OC)cc(OC)c4)n3)ccc21 [Compound 137, 3,5-Dimethoxy-N-(4-(1-(2-methoxyacetyl)indolin-5-yl)thiazol-2-yl)benzamide]
- EC50 at 24 h [1]: > 35 µM
- effect on the endocytosis of transferrin ([2]; at concentrations up to 35 μM): no effect on the endocytosis of transferrin
- endocytosis of transferrin ([2]; listed as ML278): not grossly perturbing cellular membrane trafficking pathways
- endocytosis of transferrin ([2]; listed as Probe 278): did not inhibit endocytosis of transferring
- endocytosis of transferrin [2, 3]: does not inhibit endocytosis of transferrin
- stability in PBS (Stability in PBS): stable to PBS
- reduction of efflux of free cholesterol from cells (SR-BI; during the course of the assay): up to 50%
- inhibition of efflux of cholesterol (SR-BI; listed as Probe 278): Inhibits efflux of cholesterol
- inhibition of efflux of cholesterol (SR-BI; [3]): inhibit efflux of cholesterol
